How the values were obtained:
P2RY14 [1] = biological target: T1, P2RY14 (Homo sapiens, UniProt Q15391); parameters: host or cells: yeast and HEK-293 cells (Chambers et al., J. Biol. Chem. 275: 10767-10771 (2000)); conditions: yeast and mammalian cells, Chambers et al. 2000; cited from earlier work
T1 sequence (Q15391 1-338): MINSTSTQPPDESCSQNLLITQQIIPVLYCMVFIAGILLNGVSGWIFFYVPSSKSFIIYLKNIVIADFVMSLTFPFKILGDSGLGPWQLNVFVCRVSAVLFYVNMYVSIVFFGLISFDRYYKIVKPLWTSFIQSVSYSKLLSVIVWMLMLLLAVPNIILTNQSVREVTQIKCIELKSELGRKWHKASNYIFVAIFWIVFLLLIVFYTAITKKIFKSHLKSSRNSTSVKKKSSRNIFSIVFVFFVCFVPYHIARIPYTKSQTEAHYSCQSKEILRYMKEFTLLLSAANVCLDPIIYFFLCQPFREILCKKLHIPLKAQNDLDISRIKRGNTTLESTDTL

[2] = system: simian (chimpanzee) P2RY14; experiment: FLIPR whole cell Ca2+ agonist assay, HEK cells expressing simian (chimpanzee) P2RY14 and Gqi5; type: cell-based
From the text: (§1) Stable HEK clonal cell lines expressing P2RY14 and the chimeric G protein Gqi5 were constructed. The chimeric Gqi5 forces the coupling of P2RY14 through the Gq (calcium) pathway and allows for monitoring of calcium signaling using a calcium binding fluorescent dye and a FLIPR (fluorometric imaging plate reader, MDS Sciex). Vector pCEP4 comprising the chimeric Gqi5 was obtained from Molecular Devices, Sunnyvale, Calif. (Cat. No. RD-PGQI5).
The simian (chimpanzee) P2RY14 nucleic acid fragment was synthesized based upon the Ensembl Gene ID ENSPTRG00000030093 by Bio S & T, Montreal, Quebec, Canada, to be flanked with KpnI and NotI restriction enzyme sites. […] The DNA fragment was digested with KpnI and NotI and then cloned into a pcDEF3 vector previously digested with KpnI and NotI to place the DNA fragment in the proper orientation downstream of the human EF-1a promoter. The nucleic acid encoding the simian P2RY14 was under the control of the human EF-1a promoter.
(§2) Cells were grown in DMEM medium containing 25 mM HEPES, pH 7.4 and 10% FBS, 50 units/ml penicillin/50 μg/ml streptomycin, 2 mM glutamine and 1 mM sodium pyruvate at 37° C. in humidified air containing 5% CO2. Two days post-transfection, cells were grown under selection in the DMEM medium as indicated above and supplemented with 200 μg/ml Hygromycin B and 250 μg/ml geneticin.
(§3) Cells were incubated overnight at 37° C. and 5% CO2 to form a monolayer. On the following day, 30 μl of fluorescent no-wash dye was added to the cell monolayer and the plate was incubated for 60 minutes at 37° C., 5% CO2.
(§4) For agonist assays, 6.12 μl of 10× agonist solution was added to the cell/dye incubation and Ca^2+ signaling was monitored by FLIPR. For antagonist assays, 250 nl of compound in 100% DMSO was added to cell/dye mixture; following a 20 minute incubation at room temperature, 6.12 μl of 10× agonist solution at EC80 in HBSS containing 20 mM Hepes was added to cells and Ca^2+ signaling was monitored by FLIPR. Quantitation of the % stimulation or inhibition of Ca^2+ signaling by agonist or antagonist, respectively, was calculated using the Max-Min fluorescent signal detected.

mouse P2RY14 [3] = biological target: T2, mouse P2RY14 (Mus musculus, UniProt Q9ESG6); experiment: FLIPR whole cell Ca2+ agonist assay, HEK cells expressing mouse P2RY14 and Gqi5; type: cell-based
T2 construct: expressed in transfected cells
T2 sequence (Q9ESG6 1-338): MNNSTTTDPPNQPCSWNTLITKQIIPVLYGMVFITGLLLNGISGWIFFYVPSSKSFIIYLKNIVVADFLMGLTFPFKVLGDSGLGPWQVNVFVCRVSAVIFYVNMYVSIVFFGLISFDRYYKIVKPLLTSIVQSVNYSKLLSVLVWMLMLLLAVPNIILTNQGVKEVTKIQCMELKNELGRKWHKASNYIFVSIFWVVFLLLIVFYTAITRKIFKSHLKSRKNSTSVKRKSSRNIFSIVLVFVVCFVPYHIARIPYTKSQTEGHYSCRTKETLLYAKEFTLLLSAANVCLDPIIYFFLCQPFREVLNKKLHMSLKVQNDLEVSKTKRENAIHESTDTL
From the text: as §1
The nucleic acid encoding the mouse P2RY14 was under the control of the CMV promoter.
as §2, §3, §4

[4] = system: simian (chimpanzee) P2RY14; experiment: CellKey System live cell functional assay, simian P2RY14; type: cell-based; conditions: HEK cells expressing simian P2RY14 and Gqi5
Method: (§5) The Cellkey System™ (MDS Sciex), a novel, live cell, label-free, real-time technology, was used to examine P2RY14 activation following agonist stimulation. The CellKey System™ is based on cellular dielectric spectroscopy (CDS) and monitors changes in impedance of the applied electrical current through the cell monolayer upon receptor activation.
(§6) On the following day, growth medium was removed from the cell monolayer and replaced with 135 μl of HBSS pH 7.4 containing 20 mM Hepes for a 30 minutes pre-incubation period at room temperature. Baseline measurements were made for 5 minutes at 28° C. prior to ligand addition. For agonist assays, 15 μl of 10× agonist diluted in HBSS pH 7.4 containing 20 mM HEPES was added to the cell monolayer simultaneously using the 96 multichannel head from the CellKey™ System. Cellular response was monitored for 10 minutes to assess cellular response after ligand addition.

mouse P2RY14 [5] = biological target: T2, mouse P2RY14; experiment: CellKey System live cell functional assay, mouse P2RY14; type: cell-based; conditions: HEK cells expressing mouse P2RY14 and Gqi5
Method: as §5, §6

P2RY14 [6] = biological target: T1, P2RY14; experiment: FLIPR whole cell Ca2+ agonist assay, HEK cells expressing human P2RY14 and Gqi5; type: cell-based; parameters: expressed in transfected cells; conditions: for activation of P2RY14 (Ca2+ signaling): HEK cells expressing human P2RY14 and Gqi5, FLIPR
From the text: as §1
The human P2RY14 was PCR amplified from the I.M.A.G.E. clone obtained from Invitrogen, Carlsbad, Calif. […] The codon encoding glutamate at position 54 in the wild-type human P2RY14 was changed to code for lysine. […] The PCR reaction was done in two parts. In the first part, the reaction was 5 cycles at 94° C. for 30 seconds, 65° C. for 30 seconds, and 72° C. for 90 seconds. In the second part, the reaction was 25 cycles at 94° C. for 30 seconds, 70° C. for 30 seconds, 72° C. for 90 seconds. The last cycle was followed by 7 minutes at 72° C. The PCR amplified human P2RY14 was digested with KpnI and NotI and cloned into a pcDNA3.1 (+) vector previously digested with KpnI and NotI to place the DNA fragment in the proper orientation downstream of the CMV promoter. The nucleic acid encoding the human P2RY14 was under the control of the CMV promoter.
as §2, §3, §4

P2RY14 [7] = biological target: T1, P2RY14; experiment: CellKey System live cell functional assay, human P2RY14; type: cell-based; parameters: expressed in transfected cells; conditions: HEK cells expressing human P2RY14 and Gqi5
Method: as §5, §6

[8] = system: HEK cells not expressing P2RY14; experiment: FLIPR Ca2+ release in HEK cells not expressing P2RY14 (specificity); type: cell-based
simian P2RY14 = experiment: Membrane filtration binding assay, simian P2RY14; parameters: species or system chimpanzee; conditions: HEK cells expressing simian P2RY14, membrane filtration
Method: Membrane preparations were made by N2 cavitation using a Parr unit. […] Cell were Dounce homogenized (size B, 10 strokes) and then added to the cavitation unit. Pressure was adjusted to 800 psi and cells were left under pressure for 30 minutes. Broken cells were released drop by drop and spun at 1000 g for 10 minutes. Supernatent was spun at 160,000 g (rotor type 60 Ti, 40000 rpm for 30 min). Pellet was resuspended in 10 mM HEPES/KOH pH 7.4, 1 mM EDTA in ⅕ the original volume, dounce homogenized (size A, 10 strokes), aliquoted, and frozen at −80° C.
Binding assays were performed in 10 mM Hepes pH 7.4 (KOH), 5 mM MnCl2, 5 mM MgCl2 buffer. Membranes (10 μg/well for human P2RY14 and 30 μg/well for simian P2RY14) were incubated with 10 nM [5.6-^3H] Uridine 5′-triphosphate (UTP), ammonium salt from Amersham Biosciences (# TRK412) in presence of compounds diluted in DMSO (2% final in assay), in a total volume of 100 μl. 50 minutes (human P2RY14) or 60 minutes (simian) P2RY14) incubations were performed at room temperature with shaking. […] To examine the stability of [^3H]-UTP in the membrane filtration binding assay, 100 ul aliquots of the reaction mixture were extracted at 2, 10, 20, 40, 60 and 90 minutes with 100 uL of cold 80 mM EDTA solution (pH 8) and 200 uL of cold Acetonitrile. After mixing, proteins were precipitated by centrifugation at 13000 rpm for 10 minutes at 4° C. […] After 0.5 min at 10:90 50 mM KH2PO4/750 mM KH2PO4, a gradient was applied in order to increase to 100% 750 mM KH2PO4 at 5 min, after which this composition was maintained for an additional 3 min. Samples were kept at 4° C. prior to HPLC analysis

Ca2+ response as compared to UDP-glucose and UMP (P2RY14 [6]; HEK cells expressing human P2RY14) | Molecule | activation of P2RY14 (P2RY14 [1]) | activation of P2RY14 (Ca2+ signaling) [2] | activation of P2RY14 (Ca2+ signaling) (mouse P2RY14 [3]) | P2RY14 signaling (impedance, CellKey) [4] | P2RY14 signaling (impedance, CellKey) (mouse P2RY14 [5]) | activation of P2RY14 (Ca2+ signaling) (P2RY14 [6]) | P2RY14 signaling (impedance, CellKey) (P2RY14 [7]) | Ca2+ release in cells not expressing P2RY14 [8] | specific binding window as radioligand (simian P2RY14)
 | Nc1ncnc2c1ncn2[C@@H]1O[C@H](COP(=O)(O)OP(=O)(O)O[C@H]2O[C@H](CO)[C@@H](O)[C@H](O)[C@H]2O)[C@@H](O)[C@H]1O [ADP-glucose] | unable to activate |  |  |  |  |  |  |  | 
 | CC(=O)N[C@H]1[C@@H](OP(=O)(O)OP(=O)(O)OC[C@H]2O[C@@H](n3ccc(=O)[nH]c3=O)[C@H](O)[C@@H]2O)O[C@H](CO)[C@@H](O)[C@@H]1O [UDP-N-acetylglucosamine] | able to activate | activated | activated | mediated signaling | mediated signaling | activated | mediated signaling |  | 
 | O=C(O)[C@H]1O[C@H](OP(=O)(O)OP(=O)(O)OC[C@H]2O[C@@H](n3ccc(=O)[nH]c3=O)[C@H](O)[C@@H]2O)[C@H](O)[C@@H](O)[C@@H]1O [UDP-glucuronic acid] | able to activate | activated | activated | mediated signaling | mediated signaling | activated | mediated signaling |  | 
much larger Ca^2+ response | O=c1ccn([C@@H]2O[C@H](COP(=O)(O)OP(=O)(O)OP(=O)(O)O)[C@@H](O)[C@H]2O)c(=O)[nH]1 [UTP, Uridine 5′-triphosphate] | unable to activate | activated | activated | mediated signaling | mediated signaling | activated | mediated signaling | able to stimulate Ca^2+ release in a dose-dependent manner | 
 | O=P(O)(O)OP(=O)(O)OC[C@H]1O[C@@H](n2cnc3c(O)ncnc32)[C@H](O)[C@@H]1O [inosine diphosphate] |  | activated | activated |  |  | activated |  |  | 
 | [^3H]-UMP |  |  |  |  |  |  |  |  | no specific binding window

From patent US20090148850A1, “Methods for identifying modulators of P2RY14” (priority 2007, published 2009)
